Where two headings read alike, the source gives them in different places.
Assays:
Type in all cases: cell-based
[1] = system: NO production in LPS-treated RAW 264.7 macrophages; test: Inhibition of NO (nitrite) production in LPS-treated RAW264.7 macrophages, Griess reaction; conditions: RAW 264.7 macrophages pre-treated 3 hours, then LPS (1 μg/mL) 24 hours
Experimental: As an indicator of NO production in RAW264.7 macrophages, production of nitrite, which is a stable end-product of NO oxidation, was evaluated. The concentration of nitrite in conditioned media was determined based on the Griess reaction.
(§1) In the present example, RAW264.7 macrophages were pre-treated for 3 hours in the medium containing non-toxic concentrations (Table 1) of each compound (Formula 1 to 4), and then LPS (1 μg/mL) was treated for 24 hours. According to the LPS stimulation of RAW264.7 macrophages, the production of NO and PGE2 was increased, and the effects of all compounds on the production levels of NO and PGE2 were evaluated by the Griess reaction and a PGE2 kit, respectively.

[2] = system: PGE2 production in LPS-treated RAW 264.7 macrophages; test: Inhibition of PGE2 production in LPS-treated RAW264.7 macrophages, PGE2 ELISA kit; conditions: RAW 264.7 macrophages pre-treated 3 hours, then LPS (1 μg/mL) 24 hours
From the text: RPMI1640, fetal bovine serum (FBS), and other tissue culture reagents were purchased from Gibco BRL Co. (Grand Island, N.Y., USA). All other chemicals were obtained from Sigma-Aldrich Co. (St. Louis, Mo., USA). Primary antibodies (COX-2: sc-1745; iNOS: sc-650; IκB-α: sc-371; p-IκB-α: sc-8404; p50: sc-7178; p65: sc-8008, Santa Cruz Biotechnology, Dallas, Tex., USA, p-ERK: #9101; ERK: #9102; p-JNK: #9251; JNK: #9252S; p-p38: #9211; p38: 9212S, Cell Signaling Technology, Danvers, Mass., USA) and secondary antibodies (mouse: ap124p; goat: ap106p; rabbit: ap132p, Millipore, Billerica Mass., USA) were used. Enzyme-linked immunosorbent assay (ELISA) kits for PGE2 were purchased from R and D Systems, Inc. (Minneapolis, Minn., USA).
as §1

RAW264.7 macrophages = test: Cytotoxicity by MTT assay
Experimental: In the present example, the cytotoxicity of each of the compounds of Formula 1 to 4 was confirmed in RAW264.7 macrophages by MTT assay.
RAW264.7 macrophages were maintained at a density of 5×10^5 cells/mL in RPMI1640 medium supplemented with 10% heat-inactivated FBS, penicillin G (100 units/mL), streptomycin ([…]), and L-glutamine (2 mM), and were incubated at 37° C. in a humidified atmosphere containing 5% CO2. To determine cell viability, cells (1×10^5 cells/well in 96-well plates) were incubated with 3-(4,5-dimethylthiazol-2-yl)-2,5-diphenyltetrazolium bromide (MTT) at a final concentration of 0.5 mg/mL for 3 hours, and the formazan formed was dissolved in acidic 2-propanol. The optical density was measured at 540 nm with a microplate reader (BioRad, Hercules, Calif., USA). The optical density of the formazan formed in control (untreated) cells was considered to represent 100% viability.

iNOS = iNOS protein expression in LPS-stimulated RAW264.7 macrophages; conditions: pre-treated 3 hours, LPS 24 hours; FIG. 1(a)
Experimental: (§2) Therefore, the inventors of the present invention further tested whether the inhibitory effects of the compound of Formula 3 against NO and PGE2 productions are correlated with the protein expression of pro-inflammatory enzymes (e.g., iNOS or COX-2, respectively), which are known to catalyze the production of NO and PGEs in LPS-stimulated cells. RAW264.7 macrophages were pre-treated with the indicated concentrations of the compound of Formula 3 for 3 hours, and then stimulated with LPS for 24 hours. The presence of the compound of Formula 3 led to the attenuation of the excessive protein expression of iNOS and COX-2 in a dose-dependent manner (see FIG. 1(a)).

COX-2 = COX-2 protein expression in LPS-stimulated RAW264.7 macrophages; conditions: pre-treated 3 hours, LPS 24 hours; FIG. 1(a)
Experimental: as §2

IL-1β = IL-1β mRNA expression in LPS-induced cells, RT-qPCR; conditions: pre-treated 3 hours, LPS (1 μg/mL) 6 hours; FIG. 1(b)
Experimental: (§3) In addition, upon stimulation by LPS, macrophages can trigger the production of pro-inflammatory cytokines such as TNF-α and ILs. The overproduction of these cytokines contributes to the pathogenesis of inflammatory diseases. Thus, the inventors of the present invention further evaluated the effects of the compound of Formula 3 on the mRNA expression of pro-inflammatory cytokines in the LPS-induced cells. The cells were pre-treated with indicated concentration for 3 hours, followed by LPS stimulation (1 μg/mL) for 6 hours. The mRNA expression of pro-inflammatory cytokines was determined by RT-qPCR.

IL-6 = IL-6 mRNA expression in LPS-induced cells, RT-qPCR; conditions: pre-treated 3 hours, LPS (1 μg/mL) 6 hours; FIG. 1(c)
Experimental: as §3

TNF-α = TNF-α mRNA expression in LPS-induced cells, RT-qPCR; conditions: pre-treated 3 hours, LPS (1 μg/mL) 6 hours; FIG. 1(d)
Experimental: as §3

NF-κB (p50 and p65) = test: NF-κB activation: nuclear translocation of p50 and p65 in LPS-induced RAW264.7 macrophages; conditions: FIG. 2(a)
IκB-α = IκB-α phosphorylation and degradation in LPS-induced RAW264.7 macrophages; conditions: FIG. 2(b)
Experimental: (§4) In the present example, a NF-κB ELISA kit (Active Motif) was used to test the nuclear extracts and determine the degree of NF-κB binding. […] Furthermore, when the cells were treated with LPS alone, the phosphorylation level of IκB-α was increased, whereas the compound of Formula 3 attenuated this phosphorylation of IκB-α. In addition, the compound of Formula 3 blocked the degradation of IκB-α in a concentration-dependent manner (see FIG. 2(b)). In line with these, LPS-induced DNA binding activity of NF-κB was declined in the nuclear extracts of the cells co-treated with the compound of Formula 3 (see FIG. 2(c)).

NF-κB = test: DNA binding activity of NF-κB in nuclear extracts, NF-κB ELISA kit; conditions: FIG. 2(c)
Experimental: as §4

p38 = test: LPS-induced p38 phosphorylation in RAW264.7 macrophages; conditions: LPS 30 minutes; FIG. 3(a)
From the text: (§5) Mitogen-activated protein kinase (MAPK) pathways are known to be involved in the expression of pro-inflammatory cytokines in macrophages. Thus, the effect of the compound of Formula 3 on the LPS-induced phosphorylation of MAPK was examined.

[3] = system: c-Jun N-terminal kinase (JNK); test: LPS-induced JNK phosphorylation in RAW264.7 macrophages; conditions: LPS 30 minutes; FIG. 3(b)
From the text: as §5

[4] = system: extracellular signal-regulated kinase (ERK); test: LPS-induced ERK phosphorylation in RAW264.7 macrophages; conditions: LPS 30 minutes; FIG. 3(c)
From the text: as §5

Compound | Cytotoxicity (μM): the maximum concentration not affecting cell viability (RAW264.7 macrophages; RAW264.7 macrophages, MTT) [µM] | IC50 [1] [µM] | IC50 [2] [µM] | also measured
C[C@H]1CCC/C=C\C(=O)c2c(O)cc(O)cc2CC(=O)O1 [Formula 4, (10Z,15S)-10,11-dehydrocurvularin] | 20 |  |  | IC50 ([1]; Mus musculus, RAW264.7): 4.4 ± 0.8 µM; IC50 ([2]; Mus musculus, RAW264.7): 6.2 ± 1.1 µM
CC1CCCCCC(=O)c2c(O)cc(O)cc2CC(=O)O1 (stereo not drawn) [Formula 1a, curvularin] | 40 | 18.1 ± 5.2 | 18.7 ± 4.9 | 
C[C@H]1CCC[C@H](O)C(=O)c2c(O)cc(O)cc2CC(=O)O1 [Formula 2b, (11S,15S)-11-hydroxycurvularin] | 40 | 7.2 ± 1.6 | 14.1 ± 4 | 
CO[C@@H]1CCC[C@H](C)OC(=O)Cc2cc(O)cc(O)c2C(=O)C1 [Formula 2c, (11R,15S)-11-methoxycurvularin] | 20 | 2.6 ± 0.4 | 3 ± 1.3 | 
CO[C@H]1CCC[C@H](C)OC(=O)Cc2cc(O)cc(O)c2C1=O [Formula 2d, (11S,15S)-11-methoxycurvularin] | 20 | 3.5 ± 0.5 | 6 ± 1.9 | 
5,7-Di-O-methylcurvularin [Formula 1c] |  | 60.6 ± 16.4 | 49.4 ± 14 | Cytotoxicity (μM): the maximum concentration not affecting cell viability (RAW264.7 macrophages): >80 µM
C[C@H]1CCC/C=C/C(=O)c2c(O)cc(O)cc2CC(=O)O1 [Formula 3, (10E,15S)-10,11-dehydrocurvularin] | 20 |  |  | IC50 ([1]; Mus musculus, RAW264.7): 1.9 ± 0.3 µM; IC50 ([2]; Mus musculus, RAW264.7): 2.7 ± 0.4 µM; Protein expression of iNOS (iNOS): attenuation; Protein expression of COX-2 (COX-2): attenuation; mRNA expression of IL-1β (IL-1β): significantly suppressed; mRNA expression of IL-6 (IL-6): significantly suppressed; mRNA expression of TNF-α (TNF-α): significantly suppressed; Nuclear translocation of p50 and p65 (NF-κB (p50 and p65)): dose-dependently suppressed; Degradation of IκB-α (IκB-α): blocked; Phosphorylation of IκB-α (IκB-α): attenuated; LPS-induced DNA binding activity of NF-κB (NF-κB): declined; Phosphorylation of p38 (p38): did not suppress; Phosphorylation of JNK [3]: did not suppress; Phosphorylation of ERK [4]: did not suppress
COc1cc(O)c2c(c1)CC(=O)O[C@@H](C)CCCCCC2=O [Formula 1b, 5-O-methylcurvularin] | >80 | > 80 | 40.2 ± 5.1 | 
C[C@H]1CCC[C@@H](O)CC(=O)c2c(O)cc(O)cc2CC(=O)O1 [Formula 2a, (11R,15S)-11-hydroxycurvularin] | 40 | 11.5 ± 2.7 | 15.6 ± 5.2 | 
5,7-Di-O-acetylcurvularin [Formula 1e] |  | 77.5 ± 9.3 | > 80 | Cytotoxicity (μM): the maximum concentration not affecting cell viability (RAW264.7 macrophages): >80 µM
CC(=O)Oc1cc(O)c2c(c1)CC(=O)O[C@@H](C)CCCCCC2=O [Formula 1d, 5-O-acetylcurvularin] |  | 46.9 ± 3.7 | 73.7 ± 17.1 | Cytotoxicity (μM): the maximum concentration not affecting cell viability (RAW264.7 macrophages): >80 µM
